In US9050298B2, “Method of treating ischemia/reperfusion injuries to a heart with netrin-1” (The Regents of the University of California, priority 2010, dated 2015):
“Also recorded” adds a separate entry of the source.

Experiments:
[1] = tested on: Bovine aortic endothelial cells (BAEC); assay: DCC expression in NO donor-treated BAECs; format: cell-based; conditions: NO donor 1 mmol/L, 2 hr
isolated cardiomyocytes = assay: DCC expression in NO donor-treated isolated cardiomyocytes; format: cell-based, mouse; conditions: NO donor 1 mmol/L, 2 hr
Protocol: NaCl 130, KCl 5.4, MgSO4 1, NaH2PO4 0.6, D-Glucose 10, HEPES 10, which was continuously bubbled with 95% O2+5% CO2. The enzymatic digestion was commenced by adding collagenase type II (Worthington Biochemical Corp., Lakewood, N.J., 0.56 mg/ml each) to the perfusion buffer and continued for 20 min. The heart was cut down and placed in the Petri dish with perfusion solution. The digested ventricular tissues were cut into 2-3 mm pieces and gently aspirated with a transfer pipette to facilitate cell dissociation. The myocytes were allowed to sediment by gravity for 8-10 min in the 15-ml Falcon tubes.

[2] = tested on: infarct size post I/R insult; conditions: nitrite supplementation; cited from earlier work
cardiac NO production = assay: ESR detection of nitric oxide in Langendorff perfused heart homogenates; parameters: species or system mouse; conditions: agent prior to netrin-1, I/R; vs. untreated I/R controls
Protocol: Langendorff perfusion: The mice were anesthetized with intraperitoneal pentobarbitone (60 mg/kg). Hearts were harvested and rapidly transferred into ice-cold Krebs-Henseleit buffer (KHB). […] NaCl118.0, KCl 4.7, CaCl2 2.5, MgSO4 1.2, KH2PO4 1.2, NaHCO3 25.0, D-Glucose 10 at constant pressure (80±1 mmHg) using a peristaltic pump and feedback system. For no I/R setting, hearts were perfused with KHB or netrin-1 for 120 min. […] These experimental protocols are illustrated in FIG. 7. Electron spin resonance detection of nitric oxide radical: Bioavailable nitric oxide radical (NO) from cells or tissues was detected using electron spin resonance (ESR) as described. See Nguyen et al. (2006) PNAS USA 103:6530-5; and Youn et al. (2009) Circ. Res 104:50-59, which are herein incorporated by reference. […] Gently collected homogenates or cell suspensions were snap-frozen in liquid nitrogen and loaded into a finger Dewar for analysis with an eScan electron spin resonance (ESR) spectrophotometer (Bruker, Freemont, Calif.) at the following settings: center field, 3410; field sweep, 100 G; microwave frequency, 9.73 GHz; microwave power, 13.26 mW; modulation amplitude, 9.82 G; 512 points resolution and receiver gain, 356.

[3] = tested on: mouse heart ischemia/reperfusion injury; assay: Langendorff I/R, netrin-1 given post-conditionally at onset of reperfusion, TTC infarct size; conditions: for Infarct size, inhibitor alone: given at reperfusion without netrin-1; for Effect of netrin-1 postconditioning on infarct size, inhibitor co-treatment: inhibitor with netrin-1
Source text: FIG. 17 diagrammatically provides the experimental protocols of the isolated C57BL/6J WT, DCC +/+ and +/−mice heart experiments with netrin-1 added post-conditionally. Data included in up to FIG. 16 indicated preventative role of netrin-1 in cardiac I/R injury when netrin-1 was given pre-conditionally ([…]). These new set of experiments are however critical in understanding if netrin-1 exerts cardioprotective effects when delivered as a post-conditioning agent at the onset of reperfusion (i.e. together with PTCA procedure). All hearts were stabilized for 40 min prior to experiments. Control hearts received 20 min of global no-flow ischemia followed by 60 min of reperfusion. Netrin-1 was given at the onset of the reperfusion. The signaling pathway inhibitors were given either alone accordingly or with the netrin-1 treatment. The arrows indicate the time for myocardial infarct sizing with 2,3,5-TTC (TTC) and for protein analysis by Western blot (WB). ▪=global no-flow ischemia.
Langendorff perfused hearts isolated from C57BL/6J wild-type (WT) control mice or DCC +/−mice underwent 20-min of global ischemia followed by 60-min of reperfusion. DCC (deleted in colorectal cancer) is one of the netrin-1 receptors we found to be however specifically involved in netrin-1 preconditioning induced cardioprotection. Netrin-1 was infused postconditionally at the onset of reperfusion at 100 ng/mL concentration with and without U0126, a specific MEK1/2 inhibitor, or 2-Phenyl-4,4,5,5-tetramethylimidazoline-1-oxyl-3-oxide (PTIO), a nitric oxide (NO)-scavenger. Infarct size was determined to evaluate the severity of myocardial injury using TTC staining, and protein kinase activations determined by Western blot analysis.

[4] = tested on: mouse heart ischemia/reperfusion injury; assay: Langendorff perfused mouse heart, global ischemia/reperfusion, infarct size by TTC (netrin-1 pre-perfusion); conditions: agent 30 min prior to netrin-1 (100 ng/ml, 45 min), then I/R
Protocol: Langendorff perfusion: The mice were anesthetized with intraperitoneal pentobarbitone (60 mg/kg). Hearts were harvested and rapidly transferred into ice-cold Krebs-Henseleit buffer (KHB). […] NaCl118.0, KCl 4.7, CaCl2 2.5, MgSO4 1.2, KH2PO4 1.2, NaHCO3 25.0, D-Glucose 10 at constant pressure (80±1 mmHg) using a peristaltic pump and feedback system. For no I/R setting, hearts were perfused with KHB or netrin-1 for 120 min. […] These experimental protocols are illustrated in FIG. 7. Infarct size analysis: […] The heart slices were then digitally photographed for planimetry using NIH Image 1.62. Infarct size is expressed as an infarct-to-risk zone ratio (the risk zone is the whole ventricular volume in this global ischemic model).

[5] = tested on: I/R-induced cardiac apoptosis; assay: TUNEL apoptosis detection in post-I/R heart sections; parameters: species or system mouse; conditions: agent + netrin-1, I/R
Protocol: Detection of apoptosis: Apoptosis was detected by the apoptosis detection kit (Chemicon International, Inc., Billerica, Mass.) according to the manufacturer's protocol. At the end of the experimental protocols frozen heart sections (12 μm) were fixed with 1% formalin for 10 min at room temperature (RT) and washed twice in PBS, permeabilized with ethanol/acetic acid (2:1) for 5 min at −20° C., washed twice in PBS, and then incubated for >10 sec with the equilibration buffer. Subsequently, the sections were incubated for 1 hr with DIG-conjugated dUTP and TdT enzymes at 37° C., and then for 10 min in the stop buffer at room temperature (RT), and finally washed three times in PBS. The sections were then incubated with FITC-conjugated anti-DIG antibody for 30 min at RT, and washed three times in PBS. Cover-slipped sections were mounted with medium containing 0.5 μg/ml of propidium iodide. […] TUNEL assay was performed to determine whether netrin-1 inhibits apoptotic cell death induced by I/R. Left ventricular sections were incubated with FITC-conjugated anti-DIG antibody and coverslipped with the mounting medium containing 0.5 μg/ml of Propidium Iodide (PI).

DCC/ERK1/2/eNOS pathway = assay: Western blot / RT-PCR of DCC, ERK1/2, eNOS signalling in perfused hearts; parameters: species or system mouse; conditions: agent + netrin-1, I/R
Protocol: RT-PCR and Western blot: Total RNA was extracted from mouse hearts using TRIzol (Invitrogen, Carlsbad, Calif.) according to the manufacturer's instructions. Reverse transcription was performed in standard fashion with iScript cDNA Synthesis Kit (Bio-Rad, Hercules, Calif.). PCR was performed using the following primer pairs: PCRs were carried out on an iCycler (Bio-Rad, Hercules, Calif.) including primers generated for GAPDH, ((95° C./2 min), (95° C./25 sec, 57° C./5 sec, 68° C. 5 min)×35, (72° C./10 min)). Western blot analysis was performed as previously published. See Youn et al. (2009) Circ. Res 104:50-59, which is herein incorporated by reference. For no I/R setting, hearts were perfused with KHB or netrin-1 for 120 min. […] These experimental protocols are illustrated in FIG. 7.

NOS = assay: L-NAME sensitive superoxide production (NOS coupling state); parameters: species or system mouse; conditions: superoxide with and without L-NAME, I/R hearts
Protocol: Superoxide measurements with electron spin resonance (ESR): Superoxide production was measured from heart homogenates using ESR as previously described. Briefly, heart homogenate (10 μg) was mixed in a spin trap solution (CMH, 0.5 mmol/L), loaded into a glass capillary (Fisher Scientific) in the presence or absence of L-NAME (100 μmol/L), and assayed for superoxide using a Bio-Spin ESR spectorphotometer (Bruker) at the following settings: center field 3476; […]; frequency 9.75 GHz; microwave power 21.02 mW; modulation amplitude 2.47 G; 512 points resolution; receiver gain 1000. Netrin-1 attenuates I/R induced NOS uncoupling: To assess the coupling state of NOS under I/R and netrin-1-infused I/R conditions, superoxide production was measured with and without the addition of L-NAME, a general inhibitor of NOS. Under normal conditions when NOS is coupled, it produces nitric oxide (NO). Therefore, the addition of L-NAME will reduce the level of NO, resulting in an increase in measured superoxide production. On the other hand, if NOS is uncoupled and is producing superoxide, the addition of L-NAME will reduce measured superoxide. […] Using this method, the coupling state of whole heart homogenate from each condition was measured (n=5 each condition), with the results shown in FIG. 13.

heart mitochondria = assay: Mitochondrial swelling assay on mitochondria from perfused hearts; parameters: species or system mouse; conditions: isolated mitochondria, absorbance 540 nm
Protocol: Mitochondria isolation: Heart tissue was rinsed twice in ice cold PBS immediately after the end of the Langendorff experiment. The tissue was then homogenized in a pre-chilled glass homogenizer using isolation buffer I (sucrose 250 mM, EGTA 1 mM, HEPES10 mM, and Tris-HCl 10 mM, pH 7.4, 1 ml buffer/0.1 g tissue) on ice. The homogenate was then centrifuged at 800 g for 7 min at 4 C. The supernatant was then transferred to a new tube and centrifuged at 4000 g for 15 min at 4° C. The pellet was rinsed using 1 ml of isolation buffer II (sucrose 250 mM, HEPES 10 mM, Tris-HCl 10 mM, pH 7.4), then centrifuged again at 4000 g for 15 min at 4° C. Further purification was performed by resuspending the pellet with 3 ml of a 19% percoll solution, then layering this on top of a double layer of 30% and 60% percoll solution in a centrifugation tube. The entire tube was spun for 60 min at 1,000 g. The mitochondria layer in the tube was carefully removed. Percoll was washed from the sample by alternating centrifugation and resuspension with isolation buffer II. The final pellet was resuspended in isolation buffer II.
Mitochondrial swelling assay: 30 μg of freshly isolated mitochondria were mixed in a buffer containing 250 mM sucrose and 10 mM Tris (pH 7.4). The mixture was then incubated with 5 mM succinate for 1 minute at room temperature, then with 250 μM of CaCl2. Absorbance at 540 nm was measured immediately for 20 min at 1 minute intervals. Swelling was measured as a decrease in absorbance over time.

[6] = tested on: mouse heart ischemia/reperfusion injury; assay: Langendorff I/R, TTC infarct size, NOX4 siRNA or sepiapterin; conditions: TTC staining
[7] = tested on: cardiac superoxide production; assay: Superoxide measurement with ESR in heart homogenates after Langendorff I/R; parameters: species or system mouse; conditions: siRNA by tail vein, 2 injections
Protocol: Langendorff perfusion: Animals were initially anesthetized with isoflurane. Hearts from the animals were rapidly removed and transferred to ice cold modified Krebs-Henseleit buffer (KHB), consisting of (in mmol/L): NaCl118.0, KCl 4.7, CaCl2 2.5, MgSO4 1.2, Kh2PO4 1.2, NaHCO3 25.0, Glucose 10, pH 7.35. […] While under perfusion, the heart is kept in a 37° C. chamber. For no I/R, hearts were perfused with KHB for 120 min. […] These treatment protocols are illustrated in FIG. 11A. […] At the end of the Langendorff experiment, hearts were removed from the perfusion apparatus and immediately transferred onto ice awaiting homogenization. […] For Western blot analysis, the supernatant from the homogenate centrifuged at 13,000 rpm for 15 min at 4° C. was used. Superoxide measurements with electron spin resonance (ESR): Superoxide production was measured from heart homogenates using ESR as previously described. Briefly, heart homogenate (10 μg) was mixed in a spin trap solution (CMH, 0.5 mmol/L), loaded into a glass capillary (Fisher Scientific) in the presence or absence of L-NAME (100 μmol/L), and assayed for superoxide using a Bio-Spin ESR spectorphotometer (Bruker) at the following settings: center field 3476; […]; frequency 9.75 GHz; microwave power 21.02 mW; modulation amplitude 2.47 G; 512 points resolution; receiver gain 1000.

NOX4 = assay: Western blot of NOX isoforms from whole heart homogenate; parameters: species or system mouse; conditions: NOX4 siRNA in vivo
Source text: Preparation of heart tissue for biochemical assays: At the end of the Langendorff experiment, hearts were removed from the perfusion apparatus and immediately transferred onto ice awaiting homogenization. For superoxide measurement and Western blot analysis, hearts were homogenized with ice cold homogenization buffer (Tris 50 mmol/L, EDTA 0.1 mmol/L, EGTA 0.1 mmol/L, protease inhibitor cocktail, pH 7.4) on ice using a glass homogenizer. For Western blot analysis, the supernatant from the homogenate centrifuged at 13,000 rpm for 15 min at 4° C. was used.
Western blot: Western blotting was performed as per standard protocols. Primary antibody for NOX4 (Abcam, Cambridge, Mass.) was used at a dilution of 1:1000. Primary antibody for actin (Sigma-Aldrich, St. Louis, Mo.) was used at a dilution of 1:3000. Secondary antibody conjugated to HRP (Bio-Rad, Hercules, Calif.) was used at a dilution of 1:2000 for NOX4, and 1:10000 for actin.

| Compound | Netrin-1 stimulated NO production in hearts pre-perfused with the agent (cardiac NO production) | Infarct size, inhibitor alone [3] | Effect of netrin-1 postconditioning on infarct size, inhibitor co-treatment [3] | NOS coupling state under I/R (NOS) | Mitochondrial function (swelling) in I/R hearts (heart mitochondria) | Infarct size after I/R [6] | further results |
| --- | --- | --- | --- | --- | --- | --- | --- |
| CNCCCCCCN(C)/[N+]([O-])=N/O [MAMANOATE] |  |  |  |  |  |  | DCC protein expression in cultured ECs [1]: increased DCC protein expression; DCC protein expression in cardiomyocytes (isolated cardiomyocytes): increased DCC protein expression |
| O=NO [Nitrite] |  |  |  |  |  |  | reduction in infarct size post I/R insult [2]: 48% |
| CC1(C)N([O])C(c2ccccc2)=[N+]([O-])C1(C)C [PTIO, 2-phenyl-4,4,5,5-tetramethylimidazoline-1-oxyl 3-oxide] | attenuated | no effect | abolished |  |  |  |  |
| N#CC(=C(N)Sc1ccccc1N)C(C#N)=C(N)Sc1ccccc1N [U0126, 1,4-diamino-2,3-dicyano-1,4-bis (2-aminophenylthio)butadiene] | 1.12±0.15 fold | no effect | abolished |  |  |  | Infarct size / cardioprotection in netrin-1-perfused hearts pre-perfused with the agent [4]: 41.3±4.1%; TUNEL positive cells, agent prior to netrin-1 [5]: 19.24±2.4%; Netrin-1 increase in phosphorylated ERK1/2 and eNOSs1177, agent prior to netrin-1 (DCC/ERK1/2/eNOS pathway): inhibited; Netrin-1 restoration of DCC protein expression, agent prior to netrin-1 (DCC/ERK1/2/eNOS pathway): abolished; AKT phosphorylation after the entire I/R procedure (DCC/ERK1/2/eNOS pathway; data not shown): unaffected |
| C[C@H](O)C(=O)C1=Nc2c(nc(N)[nH]c2=O)NC1 [sepiapterin] |  |  |  | effective in recoupling NOS; also recorded: recouples NOS | improving mitochondria function; also recorded: improving mitochondrial function | effective in reducing infarct size | Mitochondrial function (swelling) in I/R hearts (heart mitochondria; listed as Sepiapterin): restored mitochondria function; also recorded: effectively diminished mitochondrial dysfunction |
| NOX4 siRNA: in vivo grade siRNA against NOX4 (SEQ ID NO:19, 20) delivered with nanoparticle transfection kit (chain 1 CAUGCUGCUGCUGUUGCAUGUUUCA; chain 2 CCCUCUGAUGUAAUGGAACUCCGUA; nanoparticle delivery, further chemistry not given here) |  |  |  | functional NOS; also recorded: restored | marked improvement; also recorded: improved | markedly reduced | superoxide levels in NOX4 siRNA treated hearts compared to controls [7]: increased; NOX4 protein expression in hearts of siRNA treated mice (NOX4): successful silencing |
